The target of assay [1] is T1, BRD9 bromodomain (Flag-BRD9 P133-K239; Swiss Prot Q9H8M2) (Homo sapiens, UniProt Q9H8M2).
T1 construct: His-Flag-BRD9 (P133-K239); Swiss Prot Q9H8M2; His6 with TEV site (mgsshhhhhhenlyfq/) (N, cleaved yes); made in house
T1 sequence (Q9H8M2 133-239): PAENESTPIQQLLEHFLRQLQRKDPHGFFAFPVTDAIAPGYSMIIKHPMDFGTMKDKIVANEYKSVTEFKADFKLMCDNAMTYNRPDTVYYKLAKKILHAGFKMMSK
The assay can be described thus: BRD9 Bromodomain TR-FRET Competition Binding Assay. Conditions: competition with biotinylated BRD9 ligand; 90 minutes at room temperature. Here is the method: Procedure: His-Flag-BRD9 (P133-K239; Swiss Prot Q9H8M2; SEQ ID NO:1 mgsshhhhhhenlyfq/gdykddddkgslevlfqg/[…] […]) was cloned, expressed, purified, and then treated with TEV protease. Cleaved His tag was removed by purification. The binding of a biotinylated small molecule ligand of BRD9 was assessed via the LANCE® TR-FRET platform (PerkinElmer), and the compounds were assayed for inhibitory activity against this interaction.
Results: A mixture of biotinylated-ligand and SureLight™ Allophycocyanin-Streptavidin (APC-SA, PerkinElmer AD0201) in 50 mM HEPES (pH 7.4), 50 mM NaCl, 1 mM TCEP (pH 7), 0.01% (v/v) Tween-20, 0.01% (w/v) bovine serum albumin was added to a white 384-well PerkinElmer Proxiplate Plus plate. DMSO or 3-fold serially diluted compounds were then added to the Proxiplate followed by addition of Flag-BRD9. After a 10-minute incubation at room temperature, Eu-W1024 anti-FLAG (PerkinElmer, AD0273) was added. The final reaction mixture that contained 3.75 nM biotinylated ligand, 3 nM Flag-BRD9, 7.5 nM SureLight™ Allophycocyanin-Streptavidin, and 0.2 nM Eu-W1024 anti-FLAG was incubated at room temperature for 90 minutes.
The plates were then read on a PerkinElmer Envision plate reader to determine the ratio of emission at 665 nm over 615 nm. […]
(In general: Time-resolved FRET reads energy transfer from a long-lived donor to a nearby acceptor.)

The target in assay [2] is T2, Nanoluciferase-BRD9 fusion protein (3×FLAG-NLuc-BRD9) in SYO-1 cells (Homo sapiens, UniProt Q9H8M2).
T2 construct: expressed in transfected cells; host or cells: SYO-1
T2 sequence (Q9H8M2 1-597): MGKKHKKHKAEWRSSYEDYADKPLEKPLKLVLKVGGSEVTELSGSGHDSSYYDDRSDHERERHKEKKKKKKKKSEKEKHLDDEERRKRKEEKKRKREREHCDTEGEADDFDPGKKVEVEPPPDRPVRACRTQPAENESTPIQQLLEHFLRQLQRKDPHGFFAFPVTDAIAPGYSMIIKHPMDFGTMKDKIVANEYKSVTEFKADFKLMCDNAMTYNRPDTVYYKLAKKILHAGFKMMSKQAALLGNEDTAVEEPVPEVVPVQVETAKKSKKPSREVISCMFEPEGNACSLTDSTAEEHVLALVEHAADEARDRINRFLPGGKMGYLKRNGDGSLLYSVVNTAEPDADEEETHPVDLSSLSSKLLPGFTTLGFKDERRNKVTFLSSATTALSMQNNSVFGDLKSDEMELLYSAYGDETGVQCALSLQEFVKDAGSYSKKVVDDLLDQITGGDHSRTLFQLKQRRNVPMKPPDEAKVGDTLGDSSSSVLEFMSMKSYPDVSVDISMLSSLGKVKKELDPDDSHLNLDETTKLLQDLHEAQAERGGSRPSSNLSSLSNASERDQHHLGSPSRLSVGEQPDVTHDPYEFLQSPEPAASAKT
The assay can be described thus: SYO1 BRD9 NanoLuc Degradation Assay. The assay is classed as cell-based. Conditions: 6 hours; SYO-1 cells expressing 3×FLAG-NLuc-BRD9; top dose 1 μM; read-out: SYO1 BRD9-NanoLuc degradation IC50. The method in brief:
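NanoLuc signal, read by Nano-Glo luminescence after 6 h compound exposure, gives % inhibition against DMSO-treated cells (high control) and cells given 1 μM of a standard BRD9 degrader (low control). Test compounds ran as 10-point 3-fold series, top 1 μM final, in duplicate on SYO-1 cells stably expressing 3×FLAG-NLuc-BRD9.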

In general, IC50 refers to the point on the concentration scale where inhibition reaches its midpoint. A low value points to greater potency in that assay.

Turning to `COc1cc(-c2cn(C)c(=O)c3cnc(N(C)C)cc23)cc(OC)c1CN1CC[C@H]1C(=O)N(C)Cc1cccc2c1C(=O)N(C1CCC(=O)NC1=O)C2=O` (stereo partly drawn) [Compound D4, (2S)-1-(4-(6-(dimethylamino)-2-methyl-1-oxo-1,2-dihydro-2,7-naphthyridin-4-yl)-2,6-dimethoxybenzyl)-N-((2-(2,6-dioxopiperidin-3-yl)-1,3-dioxoisoindolin-4-yl)methyl)-N-methylazetidine-2-carboxamide formic acid], in assay [1], the half-maximal inhibitory concentration (IC50) was < 10 nM. Also, in assay [2], the DC50 is ≥ 100 nM. In the same order, the values of `CNc1cc2c(=O)n(C)cc(-c3cc(OC)c(CN4CCC(CCN5CCN(c6ccc7c(c6)C(=O)N(C6CCC(=O)NC6=O)C7=O)CC5)CC4)c(OC)c3)c2cn1` (centres unmarked) [Compound D30, 5-(4-[2-[1-([2,6-dimethoxy-4-[2-methyl-7-(methylamino)-1-oxo-2,6-naphthyridin-4-yl]phenyl]methyl)piperidin-4-yl]ethyl]piperazin-1-yl)-2-(2,6-dioxopiperidin-3-yl)isoindole-1,3-dione formic acid] are < 10 nM and < 10 nM. In the case of `CNc1cc2c(=O)n(C)cc(-c3cc(OC)c(CN(C)C)c(OC)c3)c2cn1` [Compound B3, 4-[4-[(Dimethylamino)methyl]-3,5-dimethoxyphenyl]-2-methyl-7-(methylamino)-1,2-dihydro-2,6-naphthyridin-1-one], in assay [1], the IC50 was ≥ 10 nM. Take `CNc1cc2c(=O)n(C)cc(-c3cc(OC)c(CN4CCC5(CC4)CN(C(=O)CCCOc4cccc6c4C(=O)N(C4CCC(=O)NC4=O)C6=O)CCO5)c(OC)c3)c2cn1` (centres unmarked) [Compound D16, 4-(4-(9-(2,6-dimethoxy-4-(2-methyl-7-(methylamino)-1-oxo-1,2-dihydro-2,6-naphthyridin-4-yl)benzyl)-1-oxa-4,9-diazaspiro[5.5]undecan-4-yl)-4-oxobutoxy)-2-(2,6-dioxopiperidin-3-yl)isoindoline-1,3-dione formic acid]: the half-maximal inhibitory concentration (IC50) in assay [1] is < 10 nM. The DC50 in assay [2] is < 10 nM. Regarding `CNc1cc2c(=O)n(C)cc(-c3cc(OC)c(CN4CCN(C(=O)COc5cccc6c5C(=O)N(C5CCC(=O)NC5=O)C6=O)CC4)c(OC)c3)c2cn1` (centres unmarked) [Compound D29, 4-[2-[4-([2,6-dimethoxy-4-[2-methyl-7-(methylamino)-1-oxo-2,6-naphthyridin-4-yl]phenyl]methyl)piperazin-1-yl]-2-oxoethoxy]-2-(2,6-dioxopiperidin-3-yl)isoindole-1,3-dione], in assay [1], the IC50 is < 10 nM. In addition, in assay [2], the DC50 is < 10 nM.

Turning to `CNc1cc2c(=O)n(C)cc(-c3cc(OC)c(CN4CCC5(CC4)CN(C(=O)CCCCOc4cccc6c4C(=O)N(C4CCC(=O)NC4=O)C6=O)CCO5)c(OC)c3)c2cn1` (centres unmarked) [Compound D15, 4-([5-[9-([2,6-dimethoxy-4-[2-methyl-7-(methylamino)-1-oxo-2,6-naphthyridin-4-yl]phenyl]methyl)-1-oxa-4,9-diazaspiro[5.5]undecan-4-yl]-5-oxopentyl]oxy)-2-(2,6-dioxopiperidin-3-yl)isoindole-1,3-dione formic acid], in assay [1], the half-inhibitory concentration (IC50) is < 10 nM. In assay [2], the DC50 was < 10 nM. As to `COc1cc(-c2cn(C)c(=O)c3cnc(N(C)CCOCCOCCNc4ccc5c(c4)C(=O)N(C4CCC(=O)NC4=O)C5=O)cc23)cc(OC)c1CN(C)C` (centres unmarked) [Compound D22, 5-[10-(5-[4-[(dimethylamino)methyl]-3,5-dimethoxyphenyl]-7-methyl-8-oxo-2,7-naphthyridin-3-yl)-4,7-dioxa-1,10-diazaundecan-1-yl]-2-(2,6-dioxopiperidin-3-yl)isoindole-1,3-dione formic acid], in assay [1], the 50% inhibitory concentration (IC50) is ≥ 10 nM. Also, in assay [2], the DC50 is ≥ 100 nM. In the same order, the values of `COc1cc(-c2cn(C)c(=O)c3cc(N(C)CC(=O)NCCCCCOc4cccc5c4C(=O)N(C4CCC(=O)NC4=O)C5=O)ncc23)cc(OC)c1CN(C)C` (centres unmarked) [Compound D12, 2-[(8-[4-[(dimethylamino)methyl]-3,5-dimethoxyphenyl]-6-methyl-5-oxo-2,6-naphthyridin-3-yl)(methyl)amino]-N-(5-[[2-(2,6-dioxopiperidin-3-yl)-1,3-dioxoisoindol-4-yl]oxy]pentyl)acetamide formic acid] are < 10 nM and ≥ 10 nM. In the same order, the values of `COc1cc(-c2cn(C)c(=O)c3cc(NCCCCCOc4cccc5c4C(=O)N(C4CCC(=O)NC4=O)C5=O)ncc23)c(OC)cc1CN(C)C` (centres unmarked) [Compound D25, 4-((5-((8-(4-((dimethylamino)methyl)-2,5-dimethoxyphenyl)-6-methyl-5-oxo-5,6-dihydro-2,6-naphthyridin-3-yl)amino)pentyl)oxy)-2-(2,6-dioxopiperidin-3-yl)isoindoline-1,3-dione] are ≥ 1000 nM and ≥ 100 nM. In the same order, the values of `COc1cc(-c2cn(C)c(=O)c3cnc(N(C)C)cc23)cc(OC)c1CN1CCC2(CC1)CN(C(=O)CCCCOc1cccc3c1C(=O)N(C1CCC(=O)NC1=O)C3=O)CCO2` (centres unmarked) [Compound D27, 4-((5-(9-(4-(6-(dimethylamino)-2-methyl-1-oxo-1,2-dihydro-2,7-naphthyridin-4-yl)-2,6-dimethoxybenzyl)-1-oxa-4,9-diazaspiro[5.5]undecan-4-yl)-5-oxopentyl)oxy)-2-(2,6-dioxopiperidin-3-yl)isoindoline-1,3-dione formic acid] are < 10 nM and < 10 nM.

`COc1cc(-c2cn(C)c(=O)c3cnc(N(C)C)cc23)cc(OC)c1CN1CCC2(CC1)CN(C(=O)CCCCOc1ccc3c(c1)C(=O)N(C1CCC(=O)NC1=O)C3=O)CCO2` (centres unmarked) [Compound D19, 5-((5-(9-(4-(6-(dimethylamino)-2-methyl-1-oxo-1,2-dihydro-2,7-naphthyridin-4-yl)-2,6-dimethoxybenzyl)-1-oxa-4,9-diazaspiro[5.5]undecan-4-yl)-5-oxopentyl)oxy)-2-(2,6-dioxopiperidin-3-yl)isoindoline-1,3-dione formic acid]: the IC50 in assay [1] was < 10 nM. The DC50 in assay [2] is < 10 nM. With `COc1cc(-c2cn(C)c(=O)c3cc(N)ncc23)cc(OC)c1CN(C)C` [Compound B5, 7-amino-4-(4-((dimethylamino)methyl)-3,5-dimethoxyphenyl)-2-methyl-2,6-naphthyridin-1(2H)-one], in assay [1], the IC50 was ≥ 10 nM. On the same count and under the same terms, under `CNc1cc2c(-c3cc(OC)c(CN(C)C)c(OC)c3)cn(C)c(=O)c2cn1` [Compound B1, 4-[4-[(dimethylamino)methyl]-3,5-dimethoxyphenyl]-2-methyl-6-(methylamino)-1,2-dihydro-2,7-naphthyridin-1-one] stands < 10 nM. The same measure, in the same setting: under `COc1cc(-c2cn(C)c(=O)c3cnc(N(C)C)cc23)cc(OC)c1CN(C)C` [Compound B2, 6-(dimethylamino)-4-[4-[(dimethylamino)methyl]-3,5-dimethoxyphenyl]-2-methyl-1,2-dihydro-2,7-naphthyridin-1-one] stands < 10 nM; under `COc1cc(-c2cn(C)c(=O)c3cnc(N)cc23)cc(OC)c1CN(C)C` [Compound B4, 6-amino-4-[4-[(dimethylamino)methyl]-3,5-dimethoxyphenyl]-2-methyl-1,2-dihydro-2,7-naphthyridin-1-one], ≥ 10 nM; under `COc1cc(-c2cn(C)c(=O)c3cc(NCC(=O)N(C)C)ncc23)cc(OC)c1CN(C)C` [Compound B6, 2-[(8-[4-[(dimethylamino)methyl]-3,5-dimethoxyphenyl]-6-methyl-5-oxo-2,6-naphthyridin-3-yl)amino]-N,N-dimethylacetamide formic acid], ≥ 10 nM.

These data come from patent US12391686B2, “Compounds and uses thereof” (Foghorn Therapeutics Inc., priority 2019, dated 2025).
